{"source": "patent US8097457B2", "about": "“Liquid crystalline substrates for culturing cells” (Wisconsin Alumni Research Foundation, priority 2005, dated 2012)", "origin": "cited, not measured here", "test_system": "live cells", "conditions": "contacted with live cells for short periods of time", "data": [{"smiles": "CCCCCc1ccc(-c2ccc(C#N)cc2)cc1", "note": "[5CB, 4′-pentyl-4-cyanobiphenyl]", "values": [{"measurement": "toxicity to live cells", "result": "cause cell death"}]}]}
